Source: publication PMC7956476, “Quinoline Functionalized Schiff Base Silver (I) Complexes: Interactions with Biomolecules and In Vitro Cytotoxicity, Antioxidant and Antimicrobial Activities” (Molecules, 2021)

Assays:
[1] = Ferric reducing antioxidant power (FRAP) assay; assay type: biochemical; settings: done in triplicate
Description: Antioxidants are important in protecting the human body against damage by reactive oxygen species (ROS). Accumulation of ROS in the cells may lead to damage of the DNA, RNA, and proteins which subsequently leads to several physiological disorders such as cardiovascular disease, diabetes, rheumatism, atherosclerosis, cancer, aging and cell death. […] The free radical scavenging ability of all ligands and complexes in this study were investigated using ferric reducing antioxidant power (FRAP). In antioxidant studies, FRAP assay is often preferred because it is simple, fast, economical, and direct in antioxidant measurement. FRAP assay is based on the electron-donating ability of an antioxidant compound. This involves the reduction of a colorless Fe^3+ tripyridyltriazine complex (Fe^3+ (TPTZ)) to an intense blue-colored Fe^2+ tripyridyltriazine complex (Fe^2+ (TPTZ)) by the electron-donating antioxidants at low pH [69]. The reducing power is to determine the reductive ability of the test compounds.
Antioxidant activity studies of L1–L5 and Q1–Q15 were done using ferric reducing antioxidant power (FRAP) assay. The ferric reducing antioxidant power assay is often used to evaluate the ability of an antioxidant to donate an electron. […] The resulting mixture was incubated at 50 °C for 20 min, and 2.5 mL of 10% trichloroacetic acid was added to acidify the mixture. After that, 1 mL of the acidified mixture was added to 1 mL of distilled water and 0.5 mL of 0.1% FeCl3. The absorbance of the resulting solution was then measured at 700 nm. The antioxidant power of the compounds was expressed as a percentage of ferric reducing antioxidant power Ascorbic acid equivalent, as shown in Equation (4). (4) % FRAP =Absorbance of Absorbance of Sample/Absorbance of Ascorbic Acid ×100

[2] = test system: calf thymus DNA (CT-DNA); experiment: CT-DNA electronic absorption titration (Wolfe–Shimer); assay type: binding; settings: for CT-DNA-Cmp. Kb (M^−1) × 10^5: intrinsic binding constant, absorption titration, PBS pH 7.2
Method: The interaction of the L1–L5 and complexes Q1–Q15 with calf thymus-DNA was carried out in a Phosphate buffer saline solution pH 7.2 stored at 4 °C. The DNA stock solution was prepared by dissolving CT-DNA sodium salt in Phosphate buffer saline solution with continuous stirring overnight. It was filtered and stored at 4 °C and used within four days. […] A fixed amount of the L1–L5 and complexes Q1–Q15 (50 µM) were prepared by dissolving an appropriate amount in DMSO. […] Therefore, in all the experimental of the interaction of L1–L5 and complexes Q1–Q15 with biomolecules, the final concentration of DMSO in the incubation mixture was ~2% (v/v).
The binding modes of L1–L5 and complexes Q1–Q15 to CT-DNA were characterized through electronic absorption titration by varying concentrations of CT-DNA (0–30 µM) in phosphate buffer saline solution against fixed concentrations (20 µM) of L1–L5 and complexes Q1–Q15. […] The absorbance of CT-DNA is cancelled by adding equivalent amounts of CT-DNA to both the tested compounds and the reference solutions.

[3] = biological target: bovine serum albumin (BSA) (Bos taurus, UniProt P02769); experiment: Albumin binding by absorption spectroscopy titration
Chain of bovine serum albumin (BSA) (P02769 25-607): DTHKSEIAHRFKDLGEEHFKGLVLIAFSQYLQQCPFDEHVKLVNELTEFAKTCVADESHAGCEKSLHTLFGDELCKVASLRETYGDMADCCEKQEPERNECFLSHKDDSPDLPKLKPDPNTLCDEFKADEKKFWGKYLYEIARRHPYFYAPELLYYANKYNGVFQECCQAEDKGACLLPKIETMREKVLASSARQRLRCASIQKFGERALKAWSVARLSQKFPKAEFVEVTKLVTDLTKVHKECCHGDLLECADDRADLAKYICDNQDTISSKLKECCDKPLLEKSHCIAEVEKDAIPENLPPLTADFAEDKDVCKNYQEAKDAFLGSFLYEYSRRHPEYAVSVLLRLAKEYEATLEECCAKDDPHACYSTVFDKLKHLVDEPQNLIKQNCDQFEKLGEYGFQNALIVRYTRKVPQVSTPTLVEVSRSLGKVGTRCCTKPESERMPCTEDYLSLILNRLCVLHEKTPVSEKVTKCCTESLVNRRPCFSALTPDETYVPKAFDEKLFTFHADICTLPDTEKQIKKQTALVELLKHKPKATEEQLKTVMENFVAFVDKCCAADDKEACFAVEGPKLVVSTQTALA
Description: Bovine serum albumin (BSA) was used as the protein standard in this study because of its close resemblance to human serum albumin (HSA), its stability, high solubility, neutrality in many biochemical reactions and low cost. In protein binding study, absorption spectroscopy titration is a known method used in studying the conformational changes in proteins, and this protein is characterized by an intense absorbance peak at 280 nm depicting the microenvironment around tyrosine and tryptophan residue polarity.
The absorbance assay of albumin binding is a very simple method used in identifying the conformational changes in protein. […] A stock solution of bovine serum albumin (BSA) was prepared by dissolving an appropriate amount of BSA in phosphate buffer saline solution (pH 7.2) under constant stirring for 1 h at 25 °C. It was kept at 4 °C and used within four days. […] The stock solution of the complex was prepared by dissolving 1 mmol of the complexes in DMSO. The absorption titration assay was done by adding different concentrations (0–10 µM) of the complexes to a constant BSA concentration (6 µM). The sample solution was incubated after each addition of the concentrations for 10 min at 25 °C before recording the absorbance at λmax 280 nm.

[4] = test system: CT-DNA-EB adduct; experiment: Fluorescence competitive displacement of ethidium bromide from CT-DNA; assay type: binding, calf; settings: for CT-DNA-EB-Complex Ksv (M^−1) × 10^4: Stern–Volmer quenching constant, EB displacement, 25 °C; for CT-DNA-EB-Complex Kq (M^−1S^−1) × 10^12: bimolecular quenching constant, Ksv = Kqτo, τo 10^−8 s; for CT-DNA-EB-Complex Kbin (M^−1) × 10^5: binding constant from double-logarithmic plot
Description: The Stern–Volmer plot approach was used based on the fact that the Stern–Volmer plots for Q1–Q15 (Figure 5c), were linear an indication of only one mechanism for the quenching fluorescence, i.e., either dynamic or static. […] (1) Ksv=Kqτo where Ksv, Kq, and τo represent Stern–Volmer quenching constant, bimolecular quenching constant, and an average lifetime of the fluorophore in the absence of the quencher, respectively. τₒ normally takes about 10^−8 s in biomacromolecules.
The double-logarithmic Equation (2) was used in determining the binding constant of complexes Q1–Q15 and CT-DNA. (2) logFo−F/F=logKb+n logQ
A competitive displacement study was carried out using fluorescence spectroscopy between CT-DNA pre-treated with ethidium bromide (EB) and complexes Q1–Q15 to establish the complexes′ actual mode of binding to CT-DNA. […] The competitive luminescence displacement assay was done using a modified method. Pre-treated 15 µM solution of EB with 15 µM of CT-DNA was prepared in a phosphate buffer of pH 7.2 and left to equilibrate for 30 min. Keeping CT-DNA-EB concentrations constant, different concentrations (0–20 µM) of the complexes were added at 8 min incubation interval at room temperature. The fluorescence quenching ability of CT-DNA bound EB by the complexes were recorded in the wavelength range of 530–700 nm with an excitation wavelength at 525 nm at 25 °C. (6) Fo/F=1+KSVQ=1+KqτoQ
A Stern–Volmer (Equation (6)) was used to evaluate the CT-DNA-EB fluorescence quenching of the complexes. Where Fo and F denote the relative fluorescence intensities of CT-DNA in the absence and presence of the quencher, Ksv, Stern–Volmer quenching constant, [Q], quencher concentration, Kq, bimolecular quenching constant and τo, average lifetime of the fluorophore in the absence of the quencher which is typically equal to 10^−8 s in biomacromolecules.

[5] = test system: Salmonella typhimurium ATCC 14026; experiment: Minimum inhibitory concentration (MIC), spotting on Müeller–Hinton agar; assay type: cell-based; settings: Gram − Ve, S. typhi, 37 °C, 18 h; for MIC: Salmonella enterica, read-out: Minimum inhibitory concentration, ST
Method: (§1) Sterilized Nutrient agar medium was first prepared by dissolving 38 g of Müeller–Hinton agar (MHA) (Biolab, Midrand, Africa) in distilled water (1 L). […] The cooled Agar medium was poured in Petri dishes while ensuring a uniform 4 mm depth of the medium and cooling further to ambient temperature.
(§2) These bacteria were inoculated in a sterilized Nutrient Broth (NB) (Biolab, Midrand, Africa) through streak plate technique and incubated at 37 °C for 18 h. The nutrient broth was sterilized by dissolving 1.3 g in distilled water (100 mL). Ca. 10 mL of the nutrient broth was transferred into a cotton wool-plugged test tubes and wrapped with an aluminium foil. […] Following this was the isolation of a single colony of the bacteria and inoculated into a 10 mL sterile NB which was then incubated in a shaking incubator at 37 °C for 18 h. Each of the bacteria strain concentrations was adjusted with sterile distilled water to get a final concentration of 1.5 × 10^8 cfu/mL, i.e., 0.5 Mc Farland’s Standard using a densitometer (Mc Farland Latvia). The bacteria were lawn inoculated on the set MHA Petri dishes using a sterile cotton swab. Screening of L1–L5 and Q1–Q15 for antibacterial activity was first carried out by spotting 5 µL of their solution (prepared from the dissolution of 1000 µg of the L1–L5 and Q1–Q15 in 1 mL dimethyl sulfoxide (DMSO)) on an MHA petri dish and incubated at 37 °C for 18 h. The antibacterial activity was determined by looking out for a clear zone at the spotting point.

[6] = test system: Staphylococcus aureus ATCC 700699 (methicillin-resistant); experiment: as above; assay type: cell-based; settings: Gram + Ve, methicillin-resistant S. aureus, 37 °C, 18 h
Method: as §1, §2

[7] = test system: Escherichia coli ATCC 25922; experiment: as above; assay type: cell-based; settings: Gram − Ve, E. coli, 37 °C, 18 h
Method: as §1, §2

[8] = test system: Pseudomonas aeruginosa ATCC 27853; experiment: as above; assay type: cell-based; settings: Gram − Ve, P. aeruginosa, 37 °C; for Minimum inhibitory concentration, PA: 18 h; for MIC: Pseudomonas aeruginosa, ATCC27853, 18 h, read-out: Minimum inhibitory concentration, PA
Method: as §1, §2

| Compound | Antioxidant (IC50 mg/mL) FRAP [1] [mg/mL] | hypochromic shift in the absorption bands on addition of CT-DNA ([2]; absorption titration with CT-DNA) | CT-DNA-Cmp. Kb (M^−1) × 10^5 [2] | Protein-Complex Kb (M^−1) × 10^4 [3] | CT-DNA-EB-Complex Ksv (M^−1) × 10^4 [4] | CT-DNA-EB-Complex Kq (M^−1S^−1) × 10^12 [4] | CT-DNA-EB-Complex Kbin (M^−1) × 10^5 [4] | Minimum inhibitory concentration, ST [5] [µg/mL] | Minimum inhibitory concentration, MRSA [6] [µg/mL] | Minimum inhibitory concentration, EC [7] [µg/mL] | Minimum inhibitory concentration, PA [8] [µg/mL] | MIC [8] [µg/mL] | MIC ([6]; Staphylococcus aureus, ATCC 700699 / MRSA) [µg/mL] | MIC [5] [µg/mL] | MIC ([7]; Escherichia coli, ATCC25922, read-out: Minimum inhibitory concentration, EC) [µg/mL] |
| --- | --- | --- | --- | --- | --- | --- | --- | --- | --- | --- | --- | --- | --- | --- | --- |
| O=S(=O)([O-])C(F)(F)F.[Ag+] [AgCF3SO3, silver trifluoromethanesulfonate, reference compound] | 0.88 ± 0.054 | 23.64–50.86% | 2.00 (M^−1) × 10^5 | 4.46 (M^−1) × 10^4 | 3.01 (M^−1) × 10^4 | 3.01 (M^−1S^−1) × 10^12 | 1.60 (M^−1) × 10^5 | 12.5 | 1000 | 50 | 1000 |  |  |  |  |
| O=C1O[C@H]([C@@H](O)CO)C(O)=C1O [Ascorbic Acid, Ascorbic acid, reference compound] | 2.68 ± 0.11 |  |  |  |  |  |  |  |  |  |  |  |  |  |  |
| c1ccc2nc(-c3nc4ccccc4s3)ccc2c1 [Complex L2, 2-(quinolin-2-yl)benzo[d]thiazole] | 2.29 ± 0.0041 |  | 1.50 (M^−1) × 10^5 |  |  |  |  |  |  |  | 100 | 50 to 100 |  |  |  |
| Clc1ccc(/N=C/c2ccc3ccccc3n2)cc1 [Complex L3, (E)-N-(4-chlorophenyl)-1-(quinolin-2-yl)methanimine] | 20.35 ± 0.0047 |  |  |  |  |  |  |  |  |  | 100 | 50 to 100 | 1000 |  |  |
| Cc1ccc(/N=C/c2ccc3ccccc3n2)cc1 [Complex L4, (E)-1-(quinolin-2-yl)-N-(p-tolyl)methanimine] | 4.50 ± 0.0053 |  | 1.60 (M^−1) × 10^5 |  |  |  |  |  |  |  |  |  |  | 1000 | 1000 |
| C(=N\Cc1cccs1)/c1ccc2ccccc2n1 [Complex L5, (E)-1-(quinolin-2-yl)-N-(thiophen-2-ylmethyl)methanimine] | 3.79 ± 0.0052 |  | 1.17 (M^−1) × 10^5 |  |  |  |  |  |  |  |  | 100 |  | 50 |  |
| Cc1ccc(N=Cc2ccc3ccccc3n2)cc1.Cc1ccc(N=Cc2ccc3ccccc3n2)cc1.O=[N+]([O-])[O-].[Ag+] [Complex Q4, [Ag(L4)2]NO3] | 2.14 ± 0.0035 |  | 4.00 (M^−1) × 10^5 | 10.3 (M^−1) × 10^4 | 3.50 (M^−1) × 10^4 | 3.50 (M^−1S^−1) × 10^12 | 2.11 (M^−1) × 10^5 | 50 | 50 | 12.5 | 12.5 |  |  |  |  |
| O=S(=O)([O-])C(F)(F)F.[Ag+].c1ccc2nc(-c3nc4ccccc4s3)ccc2c1.c1ccc2nc(-c3nc4ccccc4s3)ccc2c1 [Complex Q12, [Ag(L2)2]CF3SO3] | 1.86 ± 0.024 |  | 4.50 (M^−1) × 10^5 | 20.7 (M^−1) × 10^4 | 3.14 (M^−1) × 10^4 | 3.14 (M^−1S^−1) × 10^12 | 2.12 (M^−1) × 10^5 | 50 | 50 | 25 | 12.5 |  |  |  |  |
| C(=NCc1cccs1)c1ccc2ccccc2n1.C(=NCc1cccs1)c1ccc2ccccc2n1.O=S(=O)([O-])C(F)(F)F.[Ag+] [Complex Q15, [Ag(L5)2]CF3SO3] | 3.35 ± 0.012 |  | 4.00 (M^−1) × 10^5 | 13.1 (M^−1) × 10^4 | 2.48 (M^−1) × 10^4 | 2.48 (M^−1S^−1) × 10^12 | 5.29 (M^−1) × 10^5 | 1000 | 100 | 25 | ~0.8 |  |  |  |  |
